Data reported in patent US11304949B2, “Treatment of hidradenitis suppurativa using JAK inhibitors” (Incyte Corporation, priority 2018, dated 2022).

How the values were obtained:
[1] = system: human JAK1 (a.a. 837-1142); experiment: In vitro JAK kinase assay (HTRF), JAK1; format: biochemical; details: IC50 ratio at 1 mM ATP
[2] = biological target: human JAK1 (a.a. 837-1142) (Homo sapiens, UniProt P23458); experiment: In vitro JAK kinase assay (HTRF), JAK1; format: biochemical; details: 1 mM ATP
[3] = system: Transformed human keratinocyte (HaCaT) cells stimulated with TNFα and IFNγ; experiment: JAK inhibitors in TNFα/IFNγ stimulated keratinocytes, gene expression (QuantiGene Plex); details: 24 hours, normalized to HPRT1, mean ± standard error
[4] = system: Transformed human keratinocyte (HaCaT) cells stimulated with TNFα and IFNγ; experiment: JAK inhibitors in TNFα/IFNγ stimulated keratinocytes, inflammatory mediators in media (ProCarta Multiplex Immunoassay); details: mean ± 1 standard error
[5] = TNFα (25 ng/mL) and IFNγ (25 ng/mL), drug 25 nM
[6] = TNFα (25 ng/mL) and IFNγ (25 ng/mL), drug 50 nM
[7] = TNFα (25 ng/mL) and IFNγ (25 ng/mL), drug 100 nM
[8] = TNFα (25 ng/mL) and IFNγ (25 ng/mL), drug 200 nM
[9] = TNFα (25 ng/mL) and IFNγ (25 ng/mL) stimulation, drug 25 nM
[10] = TNFα (25 ng/mL) and IFNγ (25 ng/mL) stimulation, drug 50 nM
[11] = TNFα (25 ng/mL) and IFNγ (25 ng/mL) stimulation, drug 100 nM
[12] = TNFα (25 ng/mL) and IFNγ (25 ng/mL) stimulation, drug 200 nM

SMILES: N#CC[C@]1(n2cc(-c3ncnc4[nH]ccc34)cn2)C[C@H](N2CCC(Oc3cc(CCO)cc(C(F)(F)F)n3)CC2)C1 [Compound 26, {trans-3-(4-{[4-(2-hydroxyethyl)-6-(trifluoromethyl)pyridin-2-yl]oxy}piperidin-1-yl)-1-[4-(7H-pyrrolo[2,3-d]pyrimidin-4-yl)-1H-pyrazol-1-yl]cyclobutyl}acetonitrile]
- JAK2/JAK1 [1]: >10
- IC50 [2]: < 10 nM

SMILES: N#CCC1(n2cc(-c3ncnc4[nH]ccc34)cn2)CN([C@H]2CC[C@@H](Oc3cc(CN4CC[C@H](O)C4)cc(C(F)(F)F)n3)CC2)C1 [Compound 22, {1-(cis-4-{[4-{[(3S)-3-hydroxypyrrolidin-1-yl]methyl}-6-(trifluoromethyl)pyridin-2-yl]oxy}cyclohexyl)-3-[4-(7H-pyrrolo[2,3-d]pyrimidin-4-yl)-1H-pyrazol-1-yl]azetidin-3-yl}acetonitrile]
- JAK2/JAK1 [1]: >10
- IC50 [2]: < 10 nM

SMILES: N#CC[C@]1(n2cc(-c3ncnc4[nH]ccc34)cn2)C[C@H](N2CCC(Oc3cc(CN4CCC[C@H]4CO)cc(C(F)(F)F)n3)CC2)C1 [Compound 12, {trans-3-(4-{[4-{[(2S)-2-(hydroxymethyl)pyrrolidin-1-yl]methyl}-6-(trifluoromethyl)pyridin-2-yl]oxy}piperidin-1-yl)-1-[4-(7H-pyrrolo[2,3-d]pyrimidin-4-yl)-1H-pyrazol-1-yl]cyclobutyl}acetonitrile]
- JAK2/JAK1 [1]: >10
- IC50 [2]: < 10 nM

SMILES: C[C@H](O)CNCc1cc(OC2CCN([C@H]3C[C@](CC#N)(n4cc(-c5ncnc6[nH]ccc56)cn4)C3)CC2)nc(C(F)(F)F)c1 [Compound 25, {trans-3-(4-{[4-({[(2S)-2-hydroxypropyl]amino}methyl)-6-(trifluoromethyl)pyridin-2-yl]oxy}piperidin-1-yl)-1-[4-(7H-pyrrolo[2,3-d]pyrimidin-4-yl)-1H-pyrazol-1-yl]cyclobutyl}acetonitrile]
- JAK2/JAK1 [1]: >10
- IC50 [2]: < 10 nM

SMILES: N#CCC1(n2cc(-c3ncnc4[nH]ccc34)cn2)CN([C@H]2CC[C@@H](Oc3cc(CCO)nc(C(F)(F)F)n3)CC2)C1 [Compound 18, {1-(cis-4-{[6-(2-hydroxyethyl)-2-(trifluoromethyl)pyrimidin-4-yl]oxy}cyclohexyl)-3-[4-(7H-pyrrolo[2,3-d]pyrimidin-4-yl)-1H-pyrazol-1-yl]azetidin-3-yl}acetonitrile]
- JAK2/JAK1 [1]: >10
- IC50 [2]: < 10 nM

SMILES: Cc1n[nH]c(C)c1-c1cnn(C2(CC#N)CN(c3cc(F)c(C(=O)N[C@@H](C)C(F)(F)F)cc3F)C2)c1 [Compound 4]
- IL-1α MFI [3, 5]: 1370.52 ± 35.28
- IL-6 MFI [3, 5]: 135.32 ± 3.36
- JAK1 MFI [3, 5]: 206.29 ± 6.84
- JAK2 MFI [3, 5]: 114.94 ± 2.16
- JAK3 MFI [3, 5]: 1.02 ± 0.19
- STAT1 MFI [3, 5]: 3111.17 ± 182.20
- STAT3 MFI [3, 5]: 1557.84 ± 58.15
- STAT4 MFI [3, 5]: 5.65 ± 0.44
- STAT5A MFI [3, 5]: 22.82 ± 1.77
- STAT6 MFI [3, 5]: 1020.89 ± 23.57
- TYK2 MFI [3, 5]: 283.97 ± 8.59
- IL-1α MFI [3, 6]: 1308.7 ± 45.12
- IL-6 MFI [3, 6]: 128.14 ± 6.83
- JAK1 MFI [3, 6]: 194.2 ± 8.24
- JAK2 MFI [3, 6]: 107.16 ± 2.86
- JAK3 MFI [3, 6]: 0.99 ± 0.16
- STAT1 MFI [3, 6]: 3058.64 ± 154.86
- STAT3 MFI [3, 6]: 1519.61 ± 69.92
- STAT4 MFI [3, 6]: 5.41 ± 0.33
- STAT5A MFI [3, 6]: 20.71 ± 1.77
- STAT6 MFI [3, 6]: 982.62 ± 14.34
- TYK2 MFI [3, 6]: 273.68 ± 7.44
- IL-1α MFI [3, 7]: 1194.29 ± 12.27
- IL-6 MFI [3, 7]: 112.13 ± 3.37
- JAK1 MFI [3, 7]: 193.28 ± 4.55
- JAK2 MFI [3, 7]: 95.51 ± 3.13
- JAK3 MFI [3, 7]: 0.99 ± 0.15
- STAT1 MFI [3, 7]: 3035.33 ± 122.14
- STAT3 MFI [3, 7]: 1457.24 ± 54.48
- STAT4 MFI [3, 7]: 5.32 ± 0.46
- STAT5A MFI [3, 7]: 18.44 ± 1.85
- STAT6 MFI [3, 7]: 943.66 ± 25.99
- TYK2 MFI [3, 7]: 266 ± 6.82
- IL-1α MFI [3, 8]: 1151.31 ± 20.01
- IL-6 MFI [3, 8]: 101.17 ± 2.91
- JAK1 MFI [3, 8]: 182.86 ± 4.07
- JAK2 MFI [3, 8]: 91.17 ± 2.15
- JAK3 MFI [3, 8]: 0.85 ± 0.15
- STAT1 MFI [3, 8]: 2984.14 ± 163.4
- STAT3 MFI [3, 8]: 1483.1 ± 51.73
- STAT4 MFI [3, 8]: 5.04 ± 0.36
- STAT5A MFI [3, 8]: 17.64 ± 1.46
- STAT6 MFI [3, 8]: 966.51 ± 12.3
- TYK2 MFI [3, 8]: 263.49 ± 5.05
- IL-1α MFI ([3]; no stimulation, drug 200 nM): 88.72 ± 5.90
- IL-6 MFI ([3]; no stimulation, drug 200 nM): 4.98 ± 0.28
- JAK1 MFI ([3]; no stimulation, drug 200 nM): 177.67 ± 11.84
- JAK2 MFI ([3]; no stimulation, drug 200 nM): 25.25 ± 1.04
- JAK3 MFI ([3]; no stimulation, drug 200 nM): 0.68 ± 0.17
- STAT1 MFI ([3]; no stimulation, drug 200 nM): 554.39 ± 11.80
- STAT3 MFI ([3]; no stimulation, drug 200 nM): 746.17 ± 16.73
- STAT4 MFI ([3]; no stimulation, drug 200 nM): 4.28 ± 0.61
- STAT5A MFI ([3]; no stimulation, drug 200 nM): 1.75 ± 0.44
- STAT6 MFI ([3]; no stimulation, drug 200 nM): 762.04 ± 9.44
- TYK2 MFI ([3]; no stimulation, drug 200 nM): 217.28 ± 14.28
- IL-1α concentration in media [4, 9]: 7.74 ± 0.36 pg/mL
- IL-6 concentration in media [4, 9]: 774.87 ± 31.09 pg/mL
- IP-10/CXCL10 concentration in media [4, 9]: 3999.39 ± 370.53 pg/mL
- MIP1α concentration in media [4, 9]: 101.71 ± 3.84 pg/mL
- RANTES concentration in media [4, 9]: 216.88 ± 13.45 pg/mL
- IL-1α concentration in media [4, 10]: 7.01 ± 0.39 pg/mL
- IL-6 concentration in media [4, 10]: 710.89 ± 36.7 pg/mL
- IP-10/CXCL10 concentration in media [4, 10]: 3665.2 ± 277.11 pg/mL
- MIP1α concentration in media [4, 10]: 104.54 ± 6.56 pg/mL
- RANTES concentration in media [4, 10]: 201.93 ± 15.44 pg/mL
- IL-1α concentration in media [4, 11]: 7.27 ± 0.47 pg/mL
- IL-6 concentration in media [4, 11]: 690.4 ± 35.25 pg/mL
- IP-10/CXCL10 concentration in media [4, 11]: 3860.41 ± 323.05 pg/mL
- MIP1α concentration in media [4, 11]: 96.4 ± 4.18 pg/mL
- RANTES concentration in media [4, 11]: 207.79 ± 17.38 pg/mL
- IL-1α concentration in media [4, 12]: 6.45 ± 0.38 pg/mL
- IL-6 concentration in media [4, 12]: 621.79 ± 33.44 pg/mL
- IP-10/CXCL10 concentration in media [4, 12]: 3835.78 ± 304.58 pg/mL
- MIP1α concentration in media [4, 12]: 98.72 ± 3.87 pg/mL
- RANTES concentration in media [4, 12]: 189.62 ± 13.78 pg/mL
- IL-1α concentration in media ([4]; no stimulation, drug 200 nM): 0.30 ± 0.05 pg/mL
- IL-6 concentration in media ([4]; no stimulation, drug 200 nM): 28.79 ± 2.91 pg/mL
- IP-10/CXCL10 concentration in media ([4]; no stimulation, drug 200 nM): 20.23 ± 0.48 pg/mL
- MIP1α concentration in media ([4]; no stimulation, drug 200 nM): 2.90 ± 0.21 pg/mL
- RANTES concentration in media ([4]; no stimulation, drug 200 nM): 8.61 ± 0.52 pg/mL

SMILES: C[C@@H](CO)NCc1cc(OC2CCN([C@H]3C[C@](CC#N)(n4cc(-c5ncnc6[nH]ccc56)cn4)C3)CC2)nc(C(F)(F)F)c1 [Compound 23, {trans-3-(4-{[4-({[(1S)-2-hydroxy-1-methylethyl]amino}methyl)-6-(trifluoromethyl)pyridin-2-yl]oxy}piperidin-1-yl)-1-[4-(7H-pyrrolo[2,3-d]pyrimidin-4-yl)-1H-pyrazol-1-yl]cyclobutyl}acetonitrile]
- JAK2/JAK1 [1]: >10
- IC50 [2]: < 10 nM

SMILES: N#CC[C@]1(n2cc(-c3ncnc4[nH]ccc34)cn2)C[C@H](N2CCC(Oc3cc(CN4CC(O)C4)cc(C(F)(F)F)n3)CC2)C1 [Compound 11, {trans-3-(4-{[4-[(3-hydroxyazetidin-1-yl)methyl]-6-(trifluoromethyl)pyridin-2-yl]oxy}piperidin-1-yl)-1-[4-(7H-pyrrolo[2,3-d]pyrimidin-4-yl)-1H-pyrazol-1-yl]cyclobutyl}acetonitrile]
- JAK2/JAK1 [1]: >10
- IC50 [2]: < 10 nM

SMILES: N#CCC(C1CCN(c2nc3cccnc3o2)C1)n1cc(-c2ncnc3[nH]ccc23)cn1 (centres unmarked) [Compound 7, 3-(1-[1,3]oxazolo[5,4-b]pyridin-2-ylpyrrolidin-3-yl)-3-[4-(7H-pyrrolo[2,3-d]pyrimidin-4-yl)-1H-pyrazol-1-yl]propanenitrile]
- JAK2/JAK1 [1]: >10
- IC50 [2]: < 10 nM

SMILES: N#CCC1(n2cc(-c3ncnc4[nH]ccc34)cn2)CN(C2CCN(C(=O)c3ccnc(C(F)(F)F)n3)CC2)C1 [Compound 3, [3-[4-(7H-pyrrolo[2,3-d]pyrimidin-4-yl)-1H-pyrazol-1-yl]-1-(1-{[2-(trifluoromethyl)pyrimidin-4-yl]carbonyl}piperidin-4-yl)azetidin-3-yl]acetonitrile]
- JAK2/JAK1 [1]: >10
- IC50 [2]: < 10 nM

SMILES: N#CCC(CN1CCN(C(=O)c2ccc(C#N)cc2F)CC1)n1cc(-c2ncnc3[nH]ccc23)cn1 (centres unmarked) [Compound 8, 4-[(4-{3-cyano-2-[4-(7H-pyrrolo[2,3-d]pyrimidin-4-yl)-1H-pyrazol-1-yl]propyl}piperazin-1-yl)carbonyl]-3-fluorobenzonitrile]
- JAK2/JAK1 [1]: >10
- IC50 [2]: < 10 nM

SMILES: CC(C)(O)c1cc(O[C@H]2CC[C@@H](N3CC(CC#N)(n4cc(-c5ncnc6[nH]ccc56)cn4)C3)CC2)nc(C(F)(F)F)c1 [Compound 20, {1-(cis-4-{[4-(1-hydroxy-1-methylethyl)-6-(trifluoromethyl)pyridin-2-yl]oxy}cyclohexyl)-3-[4-(7H-pyrrolo[2,3-d]pyrimidin-4-yl)-1H-pyrazol-1-yl]azetidin-3-yl}acetonitrile]
- JAK2/JAK1 [1]: >10
- IC50 [2]: < 10 nM

SMILES: CCNCc1cc(O[C@H]2CC[C@@H](N3CC(CC#N)(n4cc(-c5ncnc6[nH]ccc56)cn4)C3)CC2)nc(C(F)(F)F)c1 [Compound 19, {1-(cis-4-{[4-[(ethylamino)methyl]-6-(trifluoromethyl)pyridin-2-yl]oxy}cyclohexyl)-3-[4-(7H-pyrrolo[2,3-d]pyrimidin-4-yl)-1H-pyrazol-1-yl]azetidin-3-yl}acetonitrile]
- JAK2/JAK1 [1]: >10
- IC50 [2]: < 10 nM
